System: mouse embryonic stem cells (mESC's)
Assay: Mouse embryonic stem cell differentiation assessed by GeneChip array (Affymetrix GeneChip Mouse Exon 1.0ST)
Format: cell-based
Conditions: 0.5 μM, 96 hours, spontaneously differentiating mESC's
Description: Undifferentiated mouse embryonic stem cells (mESC's) were seeded at a density of 1.3×10^6 cells on 6 cm uncoated bacterial grade dishes. Spontaneous differentiation was initiated by removal of LIF from the new incubation medium, which consisted of 2% serum KO DMEM+/−AO-1-530 (0.5 μM). AO-1-530 is the same compound used in Examples 1 and 2. There were three treated and three control replicates.
Cells were incubated on a shaking platform at 37° C. for 24 hours at which time the plating media was removed and fresh medium, or AO-1-530 treated medium added as appropriate. This was repeated at 48 hours and 72 hours.
The partially-differentiated cells or embryoid bodies (EB's) were harvested at 96 hours, washed with PBS, re-suspended in Trizol and stored at −80° C. awaiting RNA extraction. The cells were subsequently thawed and RNA extracted using a standard Trizol isolation procedure with an additional clean-up performed using a Qiagen RNeasy Mini kit and DNase digestion as per the manufacturer's instructions. cRNA was prepared from the tRNA, then hybridised to the Affymetrix GeneChip Mouse Exon 1.0ST array, washed, stained then scanned.
P-value cut-off: 0.05 P-value computation: Asymptotic Multiple testing correction: Benjamini-Hochberg

CCCCCCCCCCc1ccc2c(=O)c(O)c(-c3cc(O)c(O)c(O)c3)oc2c1 [AO1530]
Neurod1 and Fgf4 genes relative to the control cells: increase
remaining 6 genes (Fgf10, Bry, Podxl, Map4k1, Pak1, Eomes) relative to the control cells: decreased
number of genes with significantly altered (P<0.05) expression compared with the controls (T-test, Benjamini-Hochberg): 315 genes
[Drug] (normalized) Pak1 ([Control] (normalized) 0.17034023): −0.2141
[Drug] (normalized) Bry ([Control] (normalized) 0.32084307): −0.4595
[Drug] (normalized) Podxl ([Control] (normalized) 0.32956442): −0.3278
[Drug] (normalized) Eomes ([Control] (normalized) 0.44043383): −0.5036
[Drug] (normalized) Fgf10 ([Control] (normalized) 0.50325745): −0.5713
[Drug] (normalized) Map4k1 ([Control] (normalized) −0.1732769): 0.1637
[Drug] (normalized) Neurod1 ([Control] (normalized) −0.46519312): 0.4739
[Drug] (normalized) Fgf4 ([Control] (normalized) −0.48913416): 0.3787
[Drug](raw) Fgf10 ([Control](raw) 394.5062): 187.7
[Drug](raw) Neurod1 ([Control](raw) 420.62076): 806
[Drug](raw) Map4k1 ([Control](raw) 814.98): 1029.3136
[Drug](raw) Eomes ([Control](raw) 2057.381): 1071.638
[Drug](raw) Fgf4 ([Control](raw) 2079.3152): 3787.6875
[Drug](raw) Pak1 ([Control](raw) 2240.5337): 1717.2704
[Drug](raw) Podxl ([Control](raw) 3411.1348): 2162.7986
[Drug](raw) Bry ([Control](raw) 8229.497): 4804.9707

Source: patent US20120094384A1, “USE OF COMPOUNDS FOR DIFFERENTIATION OF CELLS” (priority 2009, published 2012)
